Results: EP0583821A1, “Atriopeptins, guanylate cyclase activators, and phosphodiesterase inhibitors as treatment for glaucoma, hydrocephalus and cerebral edema (cranial fluid volume dysfunction)” (THE GENERAL HOSPITAL CORPORATION, priority 1987, dated 1988)

Legend:
guanylate cyclase [1] = biological target: T1, guanylate cyclase (Oryctolagus cuniculus, UniProt G1TXB5); assay: Guanylate cyclase in membranes of ventral superior sagittal dural sinus (arachnoid villi); type: biochemical, pig or rabbit; settings: small stimulation only at high concentrations; 4 min
T1 sequence (G1TXB5 28-1056): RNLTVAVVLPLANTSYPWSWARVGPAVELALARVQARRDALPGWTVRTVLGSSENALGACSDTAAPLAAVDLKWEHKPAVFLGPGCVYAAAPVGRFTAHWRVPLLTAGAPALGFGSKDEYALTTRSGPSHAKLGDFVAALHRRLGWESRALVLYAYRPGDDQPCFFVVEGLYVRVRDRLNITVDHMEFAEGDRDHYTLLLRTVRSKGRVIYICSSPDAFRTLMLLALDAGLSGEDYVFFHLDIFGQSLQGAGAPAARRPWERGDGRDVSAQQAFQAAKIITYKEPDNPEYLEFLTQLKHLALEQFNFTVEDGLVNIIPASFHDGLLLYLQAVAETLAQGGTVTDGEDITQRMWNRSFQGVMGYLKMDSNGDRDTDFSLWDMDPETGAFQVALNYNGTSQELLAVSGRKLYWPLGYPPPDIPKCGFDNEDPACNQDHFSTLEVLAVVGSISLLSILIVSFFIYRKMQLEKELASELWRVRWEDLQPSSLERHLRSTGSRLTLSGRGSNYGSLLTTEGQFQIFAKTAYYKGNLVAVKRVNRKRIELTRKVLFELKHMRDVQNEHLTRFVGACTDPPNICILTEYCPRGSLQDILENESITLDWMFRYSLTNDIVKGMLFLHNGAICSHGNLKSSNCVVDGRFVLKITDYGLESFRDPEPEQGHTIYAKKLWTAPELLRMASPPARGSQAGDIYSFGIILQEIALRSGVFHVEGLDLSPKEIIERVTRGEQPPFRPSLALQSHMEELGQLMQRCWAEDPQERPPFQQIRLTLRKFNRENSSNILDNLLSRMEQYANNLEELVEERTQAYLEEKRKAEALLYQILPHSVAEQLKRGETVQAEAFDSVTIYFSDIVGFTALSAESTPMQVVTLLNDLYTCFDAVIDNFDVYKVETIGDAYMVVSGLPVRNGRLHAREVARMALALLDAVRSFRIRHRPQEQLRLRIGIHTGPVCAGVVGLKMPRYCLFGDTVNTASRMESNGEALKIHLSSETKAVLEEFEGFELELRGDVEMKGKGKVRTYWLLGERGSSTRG
Protocol: (§1) The effect of rANP on membrane-bound guanylate cyclase and adenylate cyclase activity in various brain-barrier tissues and tissue fractions from rabbit was compared with its activity in cerebrum and cerebellum. Guanylate cyclase was measured as the rate of cyclic GMP formation by modifications of the technique of Waldman et al., supra, incorporated herein by reference. Briefly, tissues were homogenized (10 mg wet weight per milliliter) in 50 mM tris-HCl, pH 8.0, 1 mM EDTA, 1 mM dithiothreitol, and 250 mM sucrose and centrifuged at 100,000g to obtain a P1 pellet. Reaction tubes contained (in 0.3 ml), 50 mM tris, pH 7.6, 6 mM MnCl₂, 0.5 mM 3-isobutyl, 1-methylxanthine (IBMX), 10 mM theophylline, 3 mM GTP, hormone (in 0.03 ml containing 2.5 mM ascorbic acid and 0.1% bovine serum albumin), and 0.06 ml of P1 fraction (40 to 60 ug of protein). The reaction (4 minutes at 30°C) was started by addition of GTP and terminated by addition of 0.3 ml of 150 mM sodium acetate (pH 4.0) and boiling for 3 minutes. Cyclic GMP formed was subsequently measured by radioimmunoassay as described in example 6, infra. Under these conditions, guanylate cyclase activity was linear with time and tissue concentration. Adenylate cyclase activity in P1 fractions was measured according to the method described by Nathanson, et al., Science; 204:843 (1979); Mol. Pharmacol. 18:199 (1980), see Figure 1C . […] Neurosci. […]

adenylate cyclase = assay: Adenylate cyclase activity in P1 fractions of whole choroid; type: biochemical, rabbit; settings: rANP at high concentrations
Protocol: as §1

rabbits = assay: CSF production by ventricular-cisternal perfusion after intraventricular drug; type: in vivo, rabbit
Protocol: Drug was given intraventricularly, either by bolus injection or by continuous addition (during a 10-minute period) to the CSF perfusion system. Ventricular-cisternal perfusion of Blue dextran was carried out by a closed system with active pumping both into and out of the catheters at a rate of […]. Output dye concentration was monitored continuously with an in-line photocell; and a separate, contralateral venticular catheter independently measured intracranial pressure. […] Drug was administered in an artificial CSF containing 0.01% rabbit serum albumin (RSA) and 0.25 mM ascorbate. […] In one animal, there was no change in CSF secretion rate, and in no case was there an increase in CSF production. […] During a period of 100 minutes, secretion rate dropped by 70%.

guanylate cyclase [2] = biological target: T1, guanylate cyclase; assay: Guanylate cyclase in membrane fractions of cerebellum; type: biochemical, rabbit; set-up: tissues were homogenized (10 mg wet weight per milliliter); from tissue; host or cells: rabbit cerebral microvessels, choroid plexus, kidney, ciliary process, pia-arachnoid, cerebellum; 100,000 g P1 pellet
Protocol: as §1

## Ser-Leu-Arg-Arg-atriopeptin III (APIII) [rANP 1-28]
Guanylate cyclase [1]
  Ka: > 1000 nM
Adenylate cyclase
  effect on adenylate cyclase activity: small inhibition
rabbits; 13 positive responses, SEM, 30 pmol bolus or 3 to 30 pmol/min for 10 minutes intraventricular
  mean decrease in rate of CSF production: 35.3% ± 6.9%
rabbits; bolus injection of 30 pmol into the lateral ventricle, during 100 minutes, Fig. 3
  drop of CSF secretion rate: 70%
rabbits; intraventricular bolus or infusion
  positive responses (decrease in CSF production): 13 of 14
Guanylate cyclase [2]
  stimulation of guanylate cyclase: moderate amount of stimulation
